{"source": "patent US6569864B1", "about": "“Pharmaceutical agents containing acyclovir, fusaric acid and derivatives thereof” (Novactyl, Inc., priority 2001, dated 2003)", "key": {"HSV-2": {"tested_on": "HSV-2", "assay": "plaque reduction assay, HSV-2 in Vero cells", "format": "cell-based", "details": "for cell death observed under microscope: HSV-2 infected Vero cells", "experimental": "(§1) Herpes simplex virus standard strains G (HSV-2) and F (HSV-1) were used in each Example. Virus input for a 6-well plate was 200 pfu/well. HSV susceptible cell line, Vero cells, were used in the virus yield reduction assay. The culture medium for Vero cells is 5% Minimum Essential Medium GIBCO/BRL (MEM) supplemented with 5% fetal bovine serum (200 U/ml penicillin and 200 μg/ml streptomycin).\n(§2) To examine the efficacy of fusaric acid on HSV-1 and HSV-2, the susceptible cells were infected with either HSV-1 or HSV-2, then incubated with fusaric acid at concentrations of 0, 1, 10, 30, 60, and 100 μg/ml. The antiviral effect was then determined by plaque reduction assay.\n(§3) Confluent cells were washed with PBS and infected with either HSV-1 or HSV-2 (200 pfu/well) for 1 hour at 37° C. The cells were tilled every 20 minutes. After viral inoculum was removed, infected cells were washed with PBS and overlaid with 0.5% methylcellulose in culture medium (equal volume of 1% methylcellulose mixed with 2 times culture medium) containing different doses of testing compounds. The cells were incubated at 37° C. for 2 days for HSV-2 infection and 3 days for HSV-1.\n(§4) After plaque size was adequate, the cells were fixed with 20% formalin for 20 minutes and stained with 0.5% crystal violet for 20 minutes. The dye was removed by washing with tap water and left to dry in a fume hood. The plaques were then counted. The experiment was repeated.\n(§5) Mean plaque counts in test wells were compared with mean plaque counts in wells not containing the compound (control wells). The antiviral effects of fusaric acid on HSV-1 and HSV-2 are summarized in Table 1 and the antiviral effect of fusaric acid on HSV as determined by plaque reduction assay is shown in FIG. 1.\n(§6) EC90-100 (effective concentration giving 90-100% plaque reduction) was approximately 30 μg/ml for both HSV-1 and HSV-2. Control was calculated as the mean plaque count in the drug treated wells divided by the mean plaque count in the control wells. The concentrations giving a 50% reduction in the plaque count of the inoculum (EC50) was then calculated using computer software.\n(§7) To examine the efficacy of the combination of fusaric acid and acyclovir on HSV-1 and HSV-2, the plaque reduction assay technique described in Example 1 was employed. The susceptible cells were infected with HSV-1 then incubated with a combination of fusaric acid at concentrations of 0, 1, 10, 30 and 60 μg/ml and […] acyclovir. Similarly, other susceptible cells were infected with HSV-2 then incubated with a combination of […] at concentrations of 0, 1, 10, 30, and 60 μg/ml and 6.1 μM acyclovir. A control was used in each instance, which comprised neither picolinic acid nor acyclovir."}, "herpes labialis": {"tested_on": "herpes labialis", "details": "cited from earlier work"}, "HSV-1": {"tested_on": "HSV-1", "assay": "plaque reduction assay, HSV-1 in Vero cells", "format": "cell-based", "details": "for cell death observed under microscope: HSV-1 infected Vero cells", "experimental": "as §1, §2, §3, §4, §5, §6, §7"}, "Vero cells": {"tested_on": "Vero cells", "assay": "cytotoxicity by neutral red dye uptake assay", "format": "cell-based", "experimental": "(§8) The cytotoxic effects of picolinic acid and fusaric acid were examined on Vero cells using neutral red dye uptake assay. Confluent Vero cells were cultured in a medium containing various doses of picolinic acid for two days. The testing concentrations were 0, 10, 100, 250, 500 and 1000 μg/ml for picolinic acid and 0, 1, 10, 50, 100 and 500 μg/ml for fusaric acid. Culture medium was removed from confluent Vero cells in a 96-well plate by pump. The cells were then washed once with 200 μl of PBS. 200 μl culture medium containing varying concentrations of either picolinic acid or fusaric acid was added to each well. The cells were then incubated with […] at 37° C. for two days. At the end of incubation, the medium was removed and the cells washed with PBS. 200 μl of 0.01% neutral red in PBS was subsequently added to each well and incubated at 37° C. for 30 minutes The dye was then removed and the cells washed twice with 200 μl PBS per well. The dye was extracted by addition of 200 μl of 50% ethanol/1% glacial acetic acid in PBS to each well and incubated at room temperature for 15 minutes with gentle shaking at 120-150 rpm. The absorbance at 550 nm was read on an enzyme-linked immunosorbent assay (ELISA) reader. The toxicity profiles of picolinic acid and fusaric acid on Vero cells analyzed from optical absorbance readings are shown in Table 2."}, "[1]": {"assay": "cytotoxicity by neutral red dye uptake assay", "format": "cell-based", "details": "African green monkey", "experimental": "as §8"}}, "note": "Read-outs that look alike come from different tables or passages of the source."}
{"smiles": "Nc1nc2c(ncn2COCCO)c(=O)[nH]1", "note": "[Acyclovir, 2-amino-1,9-dihydro-9-[(2-hydroxyethoxy)metyl]-6H-purin-6-one]", "values": [{"measurement": "HSV-2 (% of control)", "setting": "HSV-2; acyclovir 6.1 μM, fusaric acid 0 μg/ml", "result": "42.9 % of control"}, {"measurement": "efficacy against herpes labialis and herpes genitalis (in words)", "setting": "herpes labialis; topical formulation", "result": "not effective"}, {"measurement": "HSV-1 (% of control)", "setting": "HSV-1; acyclovir 1.75 μM, fusaric acid 0 μg/ml", "result": "62.9 % of control"}]}
{"smiles": "CCCCc1ccc(C(=O)O)nc1", "note": "[Fusaric acid]", "values": [{"measurement": "Toxicity (% of control)", "setting": "Vero cells; 1 μg/ml, Vero cells, two days", "result": "101 % of control"}, {"measurement": "Toxicity (% of control)", "setting": "Vero cells; 10 μg/ml, Vero cells, two days", "result": "76 % of control"}, {"measurement": "Toxicity (% of control)", "setting": "Vero cells; 50 μg/ml, Vero cells, two days", "result": "55 % of control"}, {"measurement": "Toxicity (% of control)", "setting": "Vero cells; 100 μg/ml, Vero cells, two days", "result": "49 % of control"}, {"measurement": "Toxicity (% of control)", "setting": "Vero cells; 500 μg/ml, Vero cells, two days", "result": "16 % of control"}, {"measurement": "CC50 at 2 days", "setting": "[1]; Vero cells, read-out: cytotoxic concentration giving 50% of cell death (CC50)", "result": "~100", "unit": "µg/mL"}, {"measurement": "effect on HSV-2 (in words)", "setting": "HSV-2; 10 μg/ml fusaric acid alone", "result": "no effect"}, {"measurement": "EC90", "setting": "HSV-2; Human alphaherpesvirus 2, Vero, read-out: EC90-100 (effective concentration giving 90-100% plaque reduction)", "result": "~30", "unit": "µg/mL"}, {"measurement": "HSV-2 plaque count (% of control)", "setting": "HSV-2; fusaric acid 1 μg/ml", "result": "103 % of control"}, {"measurement": "HSV-2 plaque count (% of control)", "setting": "HSV-2; fusaric acid 10 μg/ml", "result": "101 % of control"}, {"measurement": "HSV-2 plaque count (% of control)", "setting": "HSV-2; fusaric acid 30 μg/ml", "result": "0 % of control"}, {"measurement": "HSV-2 plaque count (% of control)", "setting": "HSV-2; fusaric acid 60 μg/ml", "result": "0 % of control"}, {"measurement": "cell death observed under microscope", "setting": "HSV-2; fusaric acid 60 μg/ml", "result": "+ (˜20% cell death observed under microscope)"}, {"measurement": "HSV-2 plaque count (% of control)", "setting": "HSV-2; fusaric acid 100 μg/ml", "result": "0 % of control"}, {"measurement": "cell death observed under microscope", "setting": "HSV-2; fusaric acid 100 μg/ml", "result": "++ (˜50% cell death observed under microscope)"}, {"measurement": "effect on HSV-1 (in words)", "setting": "HSV-1; 10 μg/ml fusaric acid alone", "result": "no effect"}, {"measurement": "EC90", "setting": "HSV-1; Human alphaherpesvirus 1, Vero, read-out: EC90-100 (effective concentration giving 90-100% plaque reduction)", "result": "~30", "unit": "µg/mL"}, {"measurement": "HSV-1 plaque count (% of control)", "setting": "HSV-1; fusaric acid 1 μg/ml", "result": "101 % of control"}, {"measurement": "HSV-1 plaque count (% of control)", "setting": "HSV-1; fusaric acid 10 μg/ml", "result": "105 % of control"}, {"measurement": "HSV-1 plaque count (% of control)", "setting": "HSV-1; fusaric acid 30 μg/ml", "result": "0 % of control"}, {"measurement": "HSV-1 plaque count (% of control)", "setting": "HSV-1; fusaric acid 60 μg/ml", "result": "0 % of control"}, {"measurement": "cell death observed under microscope", "setting": "HSV-1; fusaric acid 60 μg/ml", "result": "+ (˜20% cell death observed under microscope)"}, {"measurement": "HSV-1 plaque count (% of control)", "setting": "HSV-1; fusaric acid 100 μg/ml", "result": "0 % of control"}, {"measurement": "cell death observed under microscope", "setting": "HSV-1; fusaric acid 100 μg/ml", "result": "++ (˜50% cell death observed under microscope)"}]}
{"smiles": "O=C(O)c1ccccn1", "note": "[Picolinic acid, reference compound]", "values": [{"measurement": "Toxicity (% of control)", "setting": "Vero cells; African green monkey, 2 days, 10 μg/ml", "result": "105 % of control"}, {"measurement": "Toxicity (% of control)", "setting": "Vero cells; African green monkey, 2 days, 100 μg/ml", "result": "95 % of control"}, {"measurement": "Toxicity (% of control)", "setting": "Vero cells; African green monkey, 2 days, 250 μg/ml", "result": "70 % of control"}, {"measurement": "Toxicity (% of control)", "setting": "Vero cells; African green monkey, 2 days, 500 μg/ml", "result": "57 % of control"}, {"measurement": "Toxicity (% of control)", "setting": "Vero cells; African green monkey, 2 days, 1000 μg/ml", "result": "45 % of control"}, {"measurement": "CC50 at 2 days", "setting": "[1]", "result": "~800", "unit": "µg/mL"}]}
{"smiles": "Nc1nc2c(ncn2CCC(CO)CO)c(=O)[nH]1", "note": "[denavir]", "values": [{"measurement": "reduction of the median duration of the illness", "setting": "herpes labialis; herpes labialis, typically lasting about 6 to 7 days", "result": 6, "unit": "h"}]}
